Data published in ChEMBL document CHEMBL3044752, “Isobutyl amides--potent compounds for controlling Diatraea saccharalis” (2009).

Tested on: Diatraea saccharalis
Experiment: Insecticidal activity against fourth-instar Diatraea saccharalis assessed as larval mortality measured per insect after 24 hr exposure
Type: functional

Compound | LD50 | LD90
CC(C)CNC(=O)/C=C/CCc1ccc2c(c1)OCO2 [4,5-DIHYDROPIPERLONGUMININE] | 92.83 µg | 176.5 µg
CCCCC/C=C/C=C/C(=O)NCC(C)C [PELLITORIN] | 91.19 µg | 184.56 µg
